The text below walks through data of ChEMBL document CHEMBL1134256, “Anticancer activity of synthetic analogues of the phorboxazoles” (Bioorg Med Chem Lett, 2001).

Test [1] relates to BT-20. In words: Effect on proliferation of human breast cancer cell line BT-20 by MTT assay method. The format is functional, cell-based. Background: Formazan colour is commonly taken as a measure of viable cells.
Test [2] relates to Candida albicans. Kind of test: In vitro growth inhibitory concentration for antifungal activity against Candida albicans. The format is functional.
In test [3] the test system is NALM-6. In words: Effect on proliferation of human B-lineage acute lymphoblastic leukemia cell line NALM-6 by MTT assay method. It is filed as functional, cell-based.
Test [4] deals with Saccharomyces pastorianus. In words: In vitro growth inhibitory concentration for antifungal activity against Saccharomyces carlsbergensis. It is filed as functional.
Test [5] has as its system U373 MG. Kind of test: Effect on proliferation of human brain tumor (glioblastoma) cell line U373 by MTT assay method. It is filed as functional, cell-based, U-373MG ATCC.
The test system of test [6] is BT-20. In words: In vitro anticlonogenic effect on human breast cancer cell line BT-20 at 10 nM concentration. It is filed as functional.
Test [7] relates to BT-20. Kind of test: In vitro anticlonogenic effect on human breast cancer cell line BT-20 at 1 nM concentration. It is filed as functional.
Test [8] deals with BT-20. In words: In vitro anticlonogenic effect on human breast cancer cell line BT-20 at 10 nM concentration,. The format is functional.
Test [9] relates to BT-20. Kind of test: In vitro anticlonogenic effect on human breast cancer cell line BT-20 at 100 nM concentration. The format is functional.
Test [10] deals with NALM-6. In words: In vitro anticlonogenic effect on human B-lineage acute lymphoblastic leukemia cell line NALM-6 at 10 nM concentration. The format is functional.
Test [11] concerns NALM-6. Kind of test: In vitro anticlonogenic effect on human B-lineage acute lymphoblastic leukemia cell line NALM-6 at 100 nM concentration. The format is functional.
In test [12] the test system is NALM-6. In words: In vitro anticlonogenic effect on human B-lineage acute lymphoblastic leukemia cell line NALM-6 at 1 nM concentration. It is filed as functional.
In test [13] the test system is U373 MG. In words: In vitro anticlonogenic effect on human brain tumor (glioblastoma) cell line U373 at 100 nM concentration. The format is functional, U-373MG ATCC.
Test [14] deals with U373 MG. In words: In vitro anticlonogenic effect on human brain tumor (glioblastoma) cell line U373 at 10 nM concentration. The format is functional, U-373MG ATCC.
The subject of test [15] is BT-20. Kind of test: In vitro anticlonogenic effect on human breast cancer cell line BT-20 100 nM concentration. It is filed as functional.
Test [16] has as its system BT-20. In words: In vitro anticlonogenic effect on human breast cancer cell line BT-20 10 nM concentration. It is filed as functional.
The subject of test [17] is BT-20. In words: In vitro anticlonogenic effect on human breast cancer cell line BT-20 1 nM concentration. It is filed as functional.
In test [18] the test system is Saccharomyces pastorianus. In words: In vitro growth inhibitory concentration against Saccharomyces carlsbergensis. It is filed as functional.
The subject of test [19] is U373 MG. Kind of test: In vitro anticlonogenic effect on human brain tumor (glioblastoma) cell line U373 10 nM concentration e. It is filed as functional, U-373MG ATCC.
The subject of test [20] is Candida albicans. In words: In vitro growth inhibitory concentration against Candida albicans. The format is functional.
The subject of test [21] is U373 MG. Kind of test: In vitro anticlonogenic effect on human brain tumor (glioblastoma) cell line U373 100 nM concentration. The format is functional, U-373MG ATCC.

Broadly, the IC50 is the concentration at which inhibition is half-maximal. Low values mean greater potency, high ones weaker potency. As a reminder, the GI50 is the concentration giving 50% growth inhibition. A word on the inhibition: it is the relative decrease from the control value, in per cent. A higher inhibition goes with a response far below the control.

For the compound `C=C1C[C@@H]2C[C@@H]3C[C@@H](O)C[C@@H](O3)c3coc(n3)/C=C/C[C@H]3O[C@@H](/C(C)=C/c4coc(C[C@]5(O)C[C@H](OC)C[C@H](CO)O5)n4)[C@H](C)[C@@H](OC(=O)/C=C\C[C@@H](C1)O2)[C@H]3C`, the IC50 with BT-20 [1], in the test on NALM-6 [3] and with U373 MG [5] was over 2000 nM in each case. The GI50 (in the test with Candida albicans [2]; in test [4]) was 1.6 nM throughout.

Take `C=C1C[C@@H]2C[C@@H]3C[C@@H](O)C[C@@H](O3)c3coc(n3)/C=C/C[C@H]3O[C@@H](/C(C)=C/c4coc(C[C@]5(O)C[C@H](OC)C[C@H]([C@H](O)/C=C(C)/C=C/[C@@H](C/C=C/Br)OC)O5)n4)[C@H](C)[C@@H](OC(=O)/C=C\C[C@@H](C1)O2)[C@H]3C`: the IC50 is 3.4 nM in the test with BT-20 [1], 1.7 nM in the test with NALM-6 [3] and 6.7 nM in the test on U373 MG [5]. Also, the Mean no. colonies in the test with BT-20 [6] is listed as 0 10e4*cells; in the test on BT-20 [7], 1070 10e4*cells; in the test on BT-20 [9] it was 0 10e4*cells; with NALM-6 [10] it was 0 10e4*cells; with NALM-6 [11] it was 0 10e4*cells; in the test with NALM-6 [12] it was 270 10e4*cells. Further, the Mean no. colonies in the test on U373 MG [13] is listed as 0 10e4*cells; in the test with U373 MG [14] it was 378 10e4*cells. The inhibition at 0.01 µM in the test with BT-20 [8] and in the test on NALM-6 [10] was over 99.9% throughout. Also, the inhibition at 0.1 µM with BT-20 [9], in the test on NALM-6 [11] and in the test on U373 MG [13] was over 99.9% each time. For the same compound, the GI50 (in the test with Candida albicans [2]; in [4]) was 1.6 nM throughout.

As for `COC(=O)C[C@]1(O)C[C@H](OC)C[C@H]([C@H](O)/C=C(C)/C=C/[C@@H](C/C=C/Br)OC)O1`, the IC50 with BT-20 [1], in the test with NALM-6 [3] and in the test on U373 MG [5] was over 2000 nM throughout. Further, the GI50 (with Candida albicans [2]; in test [4]) was 1.6 nM throughout.

`C=C1C[C@@H]2C[C@@H]3C[C@@H](O)C[C@@H](O3)c3coc(n3)/C=C/C[C@H]3O[C@@H](/C(C)=C/c4coc(C[C@]5(OC)C[C@H](OC)C[C@H]([C@H](O)/C=C(C)/C=C/[C@@H](C/C=C/Br)OC)O5)n4)[C@H](C)[C@@H](OC(=O)/C=C\C[C@@H](C1)O2)[C@H]3C`: the half-maximal inhibitory concentration (IC50) with BT-20 [1] was 11.3 nM; in the test with NALM-6 [3], 5.2 nM; in the test on U373 MG [5], 29.2 nM. Moreover, the Mean no. colonies with BT-20 [6] was 1430 10e4*cells; in the test with BT-20 [7] it was 1824 10e4*cells; in the test with BT-20 [9], 0 10e4*cells; with NALM-6 [10] it was 422 10e4*cells; in the test on NALM-6 [11] it was 0 10e4*cells; in the test on NALM-6 [12], 1760 10e4*cells. Also, the values for the Mean no. colonies in the test with U373 MG [13] and with U373 MG [14] were 0 10e4*cells and 578 10e4*cells, respectively. Also, the GI50 (in the test with Candida albicans [2]; in test [4]) was 1.6 nM in each case.

On to `COC(=O)/C=C/C[C@H]1O[C@@H](/C(C)=C/c2coc(C[C@]3(O)C[C@H](OC)C[C@H]([C@H](O)/C=C(C)/C=C/[C@@H](C/C=C/Br)OC)O3)n2)[C@H](C)[C@@H](OC(C)=O)[C@H]1C`, for which the IC50 in the test with BT-20 [1], in the test with NALM-6 [3] and in the test with U373 MG [5] was over 2000 nM throughout. The GI50 (in the test on Candida albicans [2]; in test [4]) was 1.6 nM throughout.

For the compound `C=C1C[C@@H]2C[C@@H]3C[C@@H](O)C[C@@H](O3)c3coc(n3)/C=C/C[C@H]3O[C@@H](/C(C)=C/[C@H](CO)NC(=O)C[C@]4(O)C[C@H](OC)C[C@H]([C@H](O)/C=C(C)/C=C/[C@@H](C/C=C/Br)OC)O4)[C@H](C)[C@@H](OC(=O)/C=C\C[C@@H](C1)O2)[C@H]3C`, the IC50 with BT-20 [1], in the test on NALM-6 [3] and in the test with U373 MG [5] was over 2000 nM throughout. The GI50 (in the test on Candida albicans [2]; in [4]) was 1.6 nM throughout.

As for `C#CC[C@H](/C=C/C(C)=C/[C@@H](O)[C@H]1C[C@@H](OC)C[C@@](O)(Cc2nc(/C=C(\C)[C@@H]3O[C@@H]4C/C=C/c5nc(co5)[C@H]5C[C@H](O)C[C@@H](C[C@H]6CC(=C)C[C@H](C/C=C\C(=O)O[C@@H]([C@H]4C)[C@H]3C)O6)O5)co2)O1)OC`, the results for the IC50 with BT-20 [1], in the test on NALM-6 [3] and in the test on U373 MG [5] were 12.6 nM, 4.8 nM and 27.4 nM, respectively. The Mean no. colonies in the test with BT-20 [15] is reported as 0 10e4*cells; with BT-20 [16], 1062 10e4*cells; with BT-20 [17], 1540 10e4*cells; in the test on NALM-6 [10] it was 293 10e4*cells; with NALM-6 [11], 0 10e4*cells; in the test with NALM-6 [12], 2116 10e4*cells. For the same compound, the Mean no. colonies was 586 10e4*cells in the test on U373 MG [19] and 144 10e4*cells with U373 MG [21]. Also, the GI50 (in [18]; in the test on Candida albicans [20]) was 1.6 nM throughout.
